Two molecules from patent US20090317461A1, “ORAL COMPOSITIONS EFFECTIVE FOR THE TREATMENT OF ORAL CAVITY MALODOR ASSOCIATED WITH THE CONSUMPTION OF ODOR-CAUSING COMPOUNDS” (Wm. Wrigley Jr. Company, priority 2006, published 2009) can be followed below.

Experiment [1] in a line: Menthol treatment of garlic model solution, TIC chromatogram peak area (Example 47). As for the experimental part:
The following example details testing of menthol for treatment of solutions with characteristic garlic aroma. Model solutions containing raw chopped garlic dispersed in water were prepared as described in Example 1. Portions of model solution (2.5 g) were treated with menthol in varying amounts (0.5 mg, 1.0 mg, and 1.5 mg).

Experiment [2] can be described thus: Headspace diallyl disulfide of garlic model solution treated with menthone, GC/MS at 5 hour intervals (Example 3). To be noted: menthone 1.63 mg in 2.5 g model solution; at each headspace analysis interval (5 hour intervals). As for the experimental part:
A model solution containing raw chopped garlic dispersed in water was prepared as described in Example 1. […] For comparison purposes, the diallyl disulfide content of the headspace of a control model solution (i.e., no menthone added) was also analyzed.

Experiment [3] is described as follows: Sensory analysis: ten panelists rate odor intensity of raw macerated garlic solution with and without active. To be noted: for reduction of odor (intensity) of raw macerated garlic in water: sensory panel; for Odor Intensity (0-100), Mean: N = 10 panelists. The method, then:
Sensory analysis of the solutions utilized for analytical analyses of the raw garlic described above was conducted by ten panelists who evaluated the odor intensity of the model solution (raw macerated garlic) with and without the different levels of added active. Odor intensity was assessed utilizing a 0-100 point scale ballot with 0=no odor and 100=very strong odor.

`CC1CCC(C(C)C)C(O)C1` (stereo not drawn) [menthol]: the “reduction in odor-causing compounds” value in experiment [1] (0.5 mg in 2.5 g model solution) is “approximately 43%”; in experiment [1] (1 mg in 2.5 g model solution), “approximately 51%”; in experiment [1] (1.5 mg in 2.5 g model solution), “approximately 60%”.

As for `CC(C)[C@@H]1CC[C@@H](C)CC1=O` [menthone], the “less diallyl disulfide in headspace than control model solution” value in experiment [2] is “at least 50%”. For the same molecule, the “reduction of odor (intensity) of raw macerated garlic in water” value is on record as 48% in experiment [3] (active concentration 0.3 mg/g) and 80% in experiment [3] (active concentration 3 mg/g). Besides, the “Odor Intensity (0-100), Mean” value in experiment [3] (menthone 0.33 mg/g) worked out at 5.2; in experiment [3] (menthone 1 mg/g), 2.7; in experiment [3] (menthone 3 mg/g), 2.
